This assay addresses T1, human CB1 receptor (Homo sapiens, UniProt P21554).
T1 construct: gene CNR1

pKi: −log10 of the molar value.

T1 sequence (P21554 whole entry): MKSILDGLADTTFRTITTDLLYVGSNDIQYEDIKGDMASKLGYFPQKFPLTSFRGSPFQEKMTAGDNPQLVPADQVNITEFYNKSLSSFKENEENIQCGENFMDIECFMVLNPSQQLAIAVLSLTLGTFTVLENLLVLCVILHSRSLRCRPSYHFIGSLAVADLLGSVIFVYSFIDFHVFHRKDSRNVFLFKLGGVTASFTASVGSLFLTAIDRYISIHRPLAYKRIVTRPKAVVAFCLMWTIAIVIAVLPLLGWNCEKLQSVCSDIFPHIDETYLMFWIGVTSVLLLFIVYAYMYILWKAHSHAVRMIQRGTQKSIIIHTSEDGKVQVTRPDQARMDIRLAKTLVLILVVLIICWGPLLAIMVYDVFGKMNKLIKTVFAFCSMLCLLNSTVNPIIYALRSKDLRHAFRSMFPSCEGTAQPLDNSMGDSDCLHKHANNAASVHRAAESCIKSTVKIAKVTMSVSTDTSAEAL

With `CCCCCCCc1cc(O)c2c(c1)OC(C)(C)[C@@H]1CCC(C)=C[C@@H]21` [(-)-trans-Δ^9-THCP, (6aR,10aR)-3-heptyl-6,6,9-trimethyl-6a,7,8,10a-tetrahydro-6H-benzo[c]chromen-1-ol], the pKi (commonly the negative decadic logarithm of the Ki, by convention in mol/L) was 8.92.
